In patent US8846653B2, “Delta-tocotrienol treatment and prevention of pancreatic cancer” (University of South Florida, priority 2006, dated 2014):

Columns and labels:
[1] = test system: MiaPaCa2 pancreatic cancer cells; experiment: Cell death by trypan blue assay, 72 hours; format: cell-based, human; conditions: MiaPaCa2, 50 μM
Experimental: (§1) FIGS. 38A and B are graphs showing the effect of tocotrienols on pancreatic cancer survival (Trypan Blue and Cell death ELISA). […] T3=tocotrienol, T=tocopherol, vit E=vitamin E succinate, gem=gemcitabine, 5-FU=fluorouracil.
(§2) MIA PaCa2 cells (3×10^3) were plated in 96 well plates and treated the following day with different compositions of tocoperhol, tocotrienol, gemcitabine, or fluorouracil. The cells were harvested 72 hours later and tested using trypan blue assay and cell death ELISA.

[2] = test system: AsPc1 pancreatic cancer cells; experiment: Effect of tocotrienols on pancreatic cancer proliferation (MTT), 72 hours; format: cell-based, human; conditions: AsPc1, 40 to 100 μM, vs vehicle
Description: (§3) FIGS. 11A and B are graphs showing the effect of tocotrienols on pancreatic cancer proliferation (MTT). […] Points, means; bars, SE (n=3).

[3] = test system: MiaPaCa2 pancreatic cancer cells; experiment: as above; format: cell-based, human; conditions: MiaPaCa2, 40 to 100 μM, vs vehicle
Description: as §3

[4] = test system: MiaPaCa2 pancreatic cancer cells; experiment: Apoptosis by cell death ELISA, 72 hours; format: cell-based, human; conditions: MiaPaCa2, 50 μM
Experimental: as §1, §2

[5] = test system: human pancreatic ductal epithelial cells transformed with oncogenic K-ras (HPDE-K-ras); experiment: Proliferation (MTT) of K-ras transformed ductal epithelial cells; format: cell-based; conditions: 72 hours
Experimental: FIGS. 36A and B are graphs showing the effect of tocotrienols on Human Pancreatic Ductal Epithelial Kras Transformed cells (MTT). (A) Tocotrienols (10-100 μM) had no effect on the proliferation of normal immortalized human pancreatic ductal epithelial cells at 72 hours. […] Points, means; bars, SE (n=3). *p<0.001 vs. vehicle. # p<0.02 vs. vehicle
The Ras effector pathways Raf-MEK-ERK and PI3 kinase-AKT are important for cell proliferation and survival, respectively. Pancreatic cancer cell lines (MIA PaCa2, SW1990, BXPC3) and HPDE 6C7 cells were treated with 8-tocotrienol (20 μM) and cell lysates were collected and prepared at progressive time intervals as described above. Proteins from lysates were run by SDS PAGE and immunoblotted with the following antibodies: Ras, p-cRaf (ser 338), p-MEK1/2, MEK1/2, pERK 44/42, ERK 44/42 (Cell Signaling) and c-Raf (BD Transduction Laboratories). […] The MIA PaCa2 and SW1990 cells were then tested for AKT inhibition. The cells were treated with δ-tocotrienol (20 μM) for 24 and 48 hours and cell lysates were run by SDS-PAGE and immunoblotted for p-AKT and AKT (Cell Signaling). […] Taken together, the inhibition of downstream effectors of oncogenic Ras signaling by δ-tocotrienol without an effect on Ras protein levels may indicate a negative regulatory role of 8-tocotrienol on the function of oncogenic Ras. The pancreatic ductal epithelial cell proliferative inhibition by δ-tocotrienol was tested to see if it occurs through blocking aberrant signal transduction cascades. Immortalized human pancreatic ductal epithelial cells (HPDE) and human pancreatic ductal epithelial cells that were transformed by stable transfection of a mutated K-ras oncogene (HPDE-K-ras) were used to test the. effect of tocotrienols on the proliferation of HPDE and HPDE-K-ras.

MiaPaCa-2 cells = experiment: MTS assay of MiaPaCa2 cultures, single 50 μM dose; format: cell-based, human; conditions: MiaPaCa2, 50 μM
Experimental: MiaPaCa-2 cells were cultured in complete DMEM media containing 10% fetal bovine serum (FBS) and 1% penicillin-streptomycin, and 1% L-glutamine. BxPc-3 pancreatic cancer cells were cultured in complete RPMI media containing 10% fetal bovine serum (FBS), and 1% penicillin-streptomycin, 1% HEPES buffer, 1% sodium pyruvate and 1% L-glutamine HPDE6-C7 cells were cultured in serum-free keratinocyte SFM media. All cells were maintained at 37° C. in a humidified incubator with 5% CO2. The cells were treated with a single 50 μM dose of vehicle (vehicle only, may be a solvent), T3 alpha (alpha tocotrienol), T3 beta (beta tocotrienol), T3 gamma (gamma tocotrienol), T3 delta (delta tocotrienol), T alpha (alpha tocopherol), T beta (beta tocopherol), TS (tocopherol succinate), GG (geranylgeraniol), SA (succinic acid). A control (no treatment) culture was grown alongside the treatments for comparison. […]

[6] = test system: MiaPaCa2 pancreatic cancer cells; experiment: Malignant transformation (Soft Agar) colony formation; format: cell-based, human; conditions: MiaPaCa2, 50 μM, vs vehicle
Experimental: FIG. 20 is a graph showing the effect of tocotrienols on pancreatic cancer malignant transformation (Soft Agar). […] Bars, SE (n=3). *p<0.001 vs. vehicle. **p<0.02 vs. vehicle. ***p<0.05 vs. vehicle. T=tocopherol, T3=tocotrienol.
MiaPaCa2 cells (3×10^3) were cultured as described in the Examples above, in 96-well plates and treated with 50 μM of different tocopherol or tocotrienol.

[7] = test system: Caspase 8, Caspase 3, PARP, cytochrome C, caspase 9; experiment: Immunoblot for biomarkers of apoptosis (caspase cascade); format: cell-based, human; conditions: MIA PaCa2, 20 μM
Experimental: An aliquot of the cells were collected and cells lysed. The lysate was then run on a Western blot and cleavage of caspase 8, caspase 3, and PARP detected.
In addition to its chemopreventive effects, δ-Tocotrienol induces apoptosis in pancreatic cancer. MIA PaCa2 cells were treated with either δ-tocotrienol or vehicle for 24 hours. Cells were collected and stained with annexin V-FITC and analyzed by flow cytometry for apoptosis. […] MIA PaCa2 cells and HPDE 6C7 cells were treated with vehicle or δ-tocotrienol (20 μM) for 24 hours, then harvested and stained for TUNEL. […] Cell lysates were prepared from MIA PaCa2 cells treated with 8-tocotrienol (20 μM) at progressive time intervals and proteins from lysates were run by SDS PAGE and immunoblotted for biomarkers of apoptosis.

CC(C)=CCC/C(C)=C/CC/C(C)=C/CC[C@]1(C)CCc2cc(O)cc(C)c2O1 [T3 delta, delta tocotrienol]
cell death (Trypan Blue) [1]: significantly induced the death | proliferation (MTT) [2]: significantly decreased the proliferation | proliferation (MTT) [3]: significantly decreased the proliferation | apoptosis (Cell death ELISA) [4]: significantly induced | proliferation (MTT) [5]: significantly inhibited | rel amt (relative value set to the control) (MiaPaCa-2 cells; 24 hours): 77 | MTS assay result, run 1 (MiaPaCa-2 cells; 24 hours): 0.174 | MTS assay result, run 2 (MiaPaCa-2 cells; 24 hours): 0.159 | MTS assay result, run 3 (MiaPaCa-2 cells; 24 hours): 0.171 | MTS assay result, run 4 (MiaPaCa-2 cells; 24 hours): 0.139 | MTS assay result, run 5 (MiaPaCa-2 cells; 24 hours): 0.185 | MTS assay result, run 6 (MiaPaCa-2 cells; 24 hours): 0.187 | MTS assay result, run 7 (MiaPaCa-2 cells; 24 hours): 0.18 | MTS assay result, run 8 (MiaPaCa-2 cells; 24 hours): 0.167 | MTS assay result, run 9 (MiaPaCa-2 cells; 24 hours): 0.170 | rel amt (relative value set to the control) (MiaPaCa-2 cells; 48 hours): 67 | MTS assay result, run 1 (MiaPaCa-2 cells; 48 hours): 0.229 | MTS assay result, run 2 (MiaPaCa-2 cells; 48 hours): 0.22 | MTS assay result, run 3 (MiaPaCa-2 cells; 48 hours): 0.218 | MTS assay result, run 4 (MiaPaCa-2 cells; 48 hours): 0.232 | MTS assay result, run 5 (MiaPaCa-2 cells; 48 hours): 0.294 | MTS assay result, run 6 (MiaPaCa-2 cells; 48 hours): 0.272 | MTS assay result, run 7 (MiaPaCa-2 cells; 48 hours): 0.221 | MTS assay result, run 8 (MiaPaCa-2 cells; 48 hours): 0.243 | MTS assay result, run 9 (MiaPaCa-2 cells; 48 hours): 0.241 | rel amt (relative value set to the control) (MiaPaCa-2 cells; 72 hours): 132 | MTS assay result, run 1 (MiaPaCa-2 cells; 72 hours): 0.667 | MTS assay result, run 2 (MiaPaCa-2 cells; 72 hours): 0.615 | MTS assay result, run 3 (MiaPaCa-2 cells; 72 hours): 0.605 | MTS assay result, run 4 (MiaPaCa-2 cells; 72 hours): 0.587 | MTS assay result, run 5 (MiaPaCa-2 cells; 72 hours): 0.582 | MTS assay result, run 6 (MiaPaCa-2 cells; 72 hours): 0.491 | MTS assay result, run 7 (MiaPaCa-2 cells; 72 hours): 0.524 | MTS assay result, run 8 (MiaPaCa-2 cells; 72 hours): 0.604 | MTS assay result, run 9 (MiaPaCa-2 cells; 72 hours): 0.584 | malignant transformation (Soft Agar) [6]: significantly inhibited the malignant transformation | mitochondrial pro-apoptotic proteins (cytochrome C release, cleavage of caspase 9) [7]: no significant effect | caspase cascade: cleavage of caspase 8, caspase 3, PARP ([7]; time dependent): activation of the caspase cascade
